In paper PMC5866846 (Archives of Toxicology, 2017):
Read-outs that look alike come from different tables or passages of the source. One block for each compound: values may come before it.

What was measured:
[1] = system: CYP1A2, 2C19, 2C9, 2B6, 3A4 and 2C8; assay: CYP activity in upcyte hepatocytes after treatment, all tested CYP isoenzymes together; format: cell-based, human
Protocol: (§1) Cells were cultivated in hepatocyte culture medium at 37 °C and 5 °% CO2 in a humidified incubator. Before starting experiments, cells were cultivated in hepatocyte culture medium containing 0.5% (v/v) DMSO (Preculture medium) for 5 days (density of 0.8 × 10^4 cells/cm^2) and were subcultivated in high-performance medium containing 0.1% (v/v) DMSO (Metabolism conditioning medium) for 3–5 days (density of 1.6 × 10^5 cells/cm^2, confluence). The medium was replaced every 2–3 days.
(§2) In HLM and supersome™ incubations the formation rate is given as nmol µg^−1 min^−1 and fmol pmol^−1 min^−1, respectively, and was calculated as the mean ± SD. […] The intrinsic Clearance (Clint) was given as Vmax/Km ratio. […] Activity of CYP enzymes in induction assays is given as the fold-change (mean ± SD) compared to the corresponding DMSO-treated control. […] Gene expression patterns of treated cells are given as fold-change compared to the corresponding DMSO-treated control samples, as described above. […] In induction and inhibition experiments corresponding EC50 and IC50 values were calculated by nonlinear regression. In all experiments a level of probability (p) ≤ 0.05 for statistical testing was considered significant.

[2] = target: T1, CYP2C9 (Homo sapiens, UniProt P11712); assay: CYP2C9 activity in upcyte hepatocytes after treatment (probe substrate cocktail); format: cell-based; parameters: host or cells: upcyte hepatocytes 653-03 and 653-03 #138 (653-03 2D6); details: human, probe tolbutamide 100 µM, 5 µM
T1 sequence (P11712 whole entry): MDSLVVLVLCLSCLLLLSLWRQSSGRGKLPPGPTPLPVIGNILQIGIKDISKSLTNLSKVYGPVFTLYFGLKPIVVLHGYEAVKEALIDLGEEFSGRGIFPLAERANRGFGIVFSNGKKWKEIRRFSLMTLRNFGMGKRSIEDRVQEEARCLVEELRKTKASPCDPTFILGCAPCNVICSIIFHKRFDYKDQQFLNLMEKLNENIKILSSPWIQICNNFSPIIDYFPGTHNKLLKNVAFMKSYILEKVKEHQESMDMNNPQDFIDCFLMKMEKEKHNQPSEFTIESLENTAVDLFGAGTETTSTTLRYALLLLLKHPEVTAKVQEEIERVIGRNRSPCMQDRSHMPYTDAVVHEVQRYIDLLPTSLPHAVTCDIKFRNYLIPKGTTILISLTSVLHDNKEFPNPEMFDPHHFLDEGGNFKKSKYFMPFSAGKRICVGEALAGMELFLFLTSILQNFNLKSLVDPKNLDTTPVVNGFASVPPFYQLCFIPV
Protocol: as §1, §2
(§3) As control 0.05 % DMSO was used. The basal CYP activity and induction of CYP activity compared to the DMSO control were measured via HPLC-ESI-MS/MS.

[3] = target: T2, CYP2C8 (Homo sapiens, UniProt P10632); assay: CYP2C8 activity in upcyte hepatocytes after treatment (probe substrate cocktail); format: cell-based; parameters: host or cells: upcyte hepatocytes 653-03 and 653-03 #138 (653-03 2D6); details: human, upcyte hepatocytes 653-03 and 653-03 2D6, probe amodiaquine 5 µM, 5 µM, both cell lines
T2 sequence (P10632 1-490): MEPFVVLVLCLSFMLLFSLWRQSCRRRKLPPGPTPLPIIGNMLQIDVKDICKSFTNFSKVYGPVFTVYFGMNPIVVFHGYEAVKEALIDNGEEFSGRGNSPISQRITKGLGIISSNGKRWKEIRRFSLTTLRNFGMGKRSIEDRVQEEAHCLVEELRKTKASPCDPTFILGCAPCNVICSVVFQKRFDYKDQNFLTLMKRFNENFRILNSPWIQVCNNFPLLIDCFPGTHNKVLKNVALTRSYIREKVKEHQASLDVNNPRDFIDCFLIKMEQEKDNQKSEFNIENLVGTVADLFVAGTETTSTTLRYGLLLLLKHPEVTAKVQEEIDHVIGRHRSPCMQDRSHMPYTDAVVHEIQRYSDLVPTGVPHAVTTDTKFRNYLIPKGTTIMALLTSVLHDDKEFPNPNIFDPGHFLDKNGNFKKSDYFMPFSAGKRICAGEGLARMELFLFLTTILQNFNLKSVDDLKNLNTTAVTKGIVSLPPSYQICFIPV
Protocol: as §1, §2, §3

[4] = target: T3, CYP2C19 (Homo sapiens, UniProt P33261); assay: CYP2C19 activity in upcyte hepatocytes after treatment (probe substrate cocktail); format: cell-based; parameters: host or cells: upcyte hepatocytes 653-03 and 653-03 #138 (653-03 2D6); details: human, probe S-mephenytoin 100 µM, 5 µM
T3 sequence (P33261 whole entry): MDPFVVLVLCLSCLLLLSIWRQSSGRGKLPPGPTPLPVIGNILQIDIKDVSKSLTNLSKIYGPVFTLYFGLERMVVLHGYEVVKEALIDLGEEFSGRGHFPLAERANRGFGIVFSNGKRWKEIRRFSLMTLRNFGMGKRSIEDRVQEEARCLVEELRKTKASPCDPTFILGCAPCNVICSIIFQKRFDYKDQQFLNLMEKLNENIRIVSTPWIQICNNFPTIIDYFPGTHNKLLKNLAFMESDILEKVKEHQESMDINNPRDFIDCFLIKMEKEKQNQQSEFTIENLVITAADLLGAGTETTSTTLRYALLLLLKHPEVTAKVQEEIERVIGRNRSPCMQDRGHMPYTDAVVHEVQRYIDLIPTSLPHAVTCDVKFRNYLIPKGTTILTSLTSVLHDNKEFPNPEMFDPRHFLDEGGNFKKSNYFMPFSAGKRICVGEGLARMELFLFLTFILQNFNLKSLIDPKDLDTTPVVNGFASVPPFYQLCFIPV
Protocol: as §1, §2, §3

[5] = target: T3, CYP2C19; assay: Inhibition of CYP2C19 activity in HLM; format: in vitro ADME; details: 200 nM to 10 µM, 10 min pre-incubation
[6] = target: T1, CYP2C9; assay: Inhibition of CYP2C9 activity in HLM; format: in vitro ADME; details: 200 nM to 10 µM, 10 min pre-incubation
[7] = target: T2, CYP2C8; assay: Inhibition of CYP2C8 activity in HLM; format: in vitro ADME; details: 200 nM to 10 µM, 10 min pre-incubation
[8] = system: ABCB1 gene expression; assay: ABCB1 gene expression in upcyte hepatocytes (Fluidigm RT-PCR); format: cell-based, human; details: rifampicin 30 µM, 72 h
From the text: Total RNA was isolated from cells using the Direct-zol™ RNA MiniPrep kit (Zymo Research Corp., Irvine, California). cDNA was synthesized using TaqMan Reverse Transcription Reagents (Life technologies, Applera GmbH, Darmstadt, Germany) and the expression of 25 genes representative of phase I and phase II drug metabolism and transport was quantified by Fluidigm’s BioMark HD high-throughput quantitative chip platform (Fluidigm Corporation, San Francisco, USA). For relative gene expression analysis, the delta-delta-Ct (ΔΔCt) method was used: the Ct values of the target mRNA were first normalized to those of the endogenous control glyceraldehyde-3-phosphate dehydrogenase (GAPDH) followed by dividing values of experimental samples by their corresponding DMSO-treated controls to calculate the x-fold changes of mRNA expression.
In HLM and supersome™ incubations the formation rate is given as nmol µg^−1 min^−1 and fmol pmol^−1 min^−1, respectively, and was calculated as the mean ± SD. […] The intrinsic Clearance (Clint) was given as Vmax/Km ratio. […] In induction and inhibition experiments corresponding EC50 and IC50 values were calculated by nonlinear regression. […]
as §3

[9] = system: GSTA2 gene expression; assay: GSTA2 gene expression in upcyte hepatocytes (Fluidigm RT-PCR); format: cell-based, human; details: rifampicin 30 µM, 72 h
From the text: […]. […] […].
[…]. As control 0.05 % DMSO was used.

[10] = Formation kinetics of Tam-Bis, (Z)- and (E)-Met E in HLM with increasing substrate concentrations; format: in vitro ADME, human; details: substrate 1 to 50 µM, Michaelis-Menten
Protocol: The reaction was started by adding a NADPH regenerating system (5 mM MgCl2, 5 mM glucose-6-phosphate, 0.5 mM NADP^+ and 10 U glucose-6-phosphate-dehydrogenase in 100 mM sodium phosphate buffer pH 7.4) to the samples and immediately put in a 37 °C water bath for 30 min. The reaction was stopped with the same volume of acetonitrile (ACN) containing 1% of acetic acid together with the corresponding deuterated internal standards. Regarding incubations with Supersomes™ containing UGTs, 5 µg of protein was incubated with 250 mM MgCl2 and 2.5 ng of alamethicin for 30 min on ice, followed by 10 min at 37 °C in a water bath. Subsequently, the Supersomes™ were incubated with 10 µM of substrates (Tam-Bis, (E)- and (Z)-Met E) and the glucuronidation was started by addition of 10 mM of uridine 5′-diphospho-glucuronic acid to the samples in a water bath at 37 °C for 30 min. The reaction was stopped as described above. Metabolites were analyzed by HPLC-ESI-MS/MS.
For the assessment of formation kinetics of Tam-Bis, (E)- and (Z)-Metabolite E, HLM were incubated with increasing substrate concentrations ranging from 1 to 50 µM as described above. As control for each concentration a sample without NADPH-regenerating system was prepared. […]

Structure (SMILES): CCC(=C(c1ccccc1)c1ccc(O)cc1)c1ccccc1 [Met E, 4-[1,2-diphenylbut-1-en-1-yl]phenol]
inhibitory effect on the tested CYP enzymes ([1]; 5 µM, 72 h): did not act as CYP inhibitors

Structure (SMILES): CO[C@H]1/C=C/O[C@@]2(C)Oc3c(C)c(O)c4c(O)c(c(/C=N/N5CCN(C)CC5)c(O)c4c3C2=O)NC(=O)/C(C)=C\C=C\[C@H](C)[C@H](O)[C@@H](C)[C@@H](O)[C@@H](C)[C@H](OC(C)=O)[C@@H]1C [Rifa, rifampicin]
ABCB1 gene expression, induction [8]: 1.7 fold | GSTA2 gene expression, induction [9]: 2.6 fold

Further lines, with some results ahead:

inhibition at 72 h, 5 µM [2]: 93% | inhibition at 72 h, 5 µM [3]: 62.5% | inhibition at 72 h, 5 µM [4]: ≤ 70% | IC50 [5]: 320 nM | IC50 [6]: 210 nM | IC50 [7]: 2400 nM
Structure (SMILES): CC/C(=C(\c1ccc(O)cc1)c1ccc(OCCN)cc1)c1ccccc1 [Norendox, N-didesmethyl-4-hydroxytamoxifen]

Km ([10]; read-out: Km, (E)-Met E formation): 11.5 µM | Km ([10]; read-out: Km, (Z)-Met E formation): 82.3 µM
Structure (SMILES): CC/C(=C(\c1ccccc1)c1ccc(OCCN(C)C)cc1)c1ccccc1 [Tam, Tamoxifen, reference compound]
V max, (E)-Met E formation [10]: 0.57 pmol/mg/min | V max, (Z)-Met E formation [10]: 9.2 pmol/mg/min

impact on CYP activities ([1]; 500 nM, 3 days): did not have an impact
Structure (SMILES): C[C@]12CC[C@@H]3c4ccc(O)cc4CC[C@H]3[C@@H]1CC[C@@H]2O [estradiol, reference compound]
